This is an account of results in patent US10640545B2 (THE GOVERNORS OF THE UNIVERSITY OF ALBERTA, priority 2017, dated 2020).

Molecules are shown by their SMILES. Where a SMILES comes first, the peptide text is derived from it. [ ]: non-standard residue; d: D form. Phe(4-Br) = N[C@@H](Cc1ccc(Br)cc1)C(=O)O; NMeL = CN[C@@H](CC(C)C)C(=O)O; Nle = CCCC[C@H](N)C(=O)O; Aib = CC(C)(N)C(=O)O

One series deals with NEP (Homo sapiens, UniProt P08473). The series is described as follows: Neprilysin degradation assay (LC-MS, quantitative). The following applies: 37° C.
NEP, sequence (P08473 whole entry): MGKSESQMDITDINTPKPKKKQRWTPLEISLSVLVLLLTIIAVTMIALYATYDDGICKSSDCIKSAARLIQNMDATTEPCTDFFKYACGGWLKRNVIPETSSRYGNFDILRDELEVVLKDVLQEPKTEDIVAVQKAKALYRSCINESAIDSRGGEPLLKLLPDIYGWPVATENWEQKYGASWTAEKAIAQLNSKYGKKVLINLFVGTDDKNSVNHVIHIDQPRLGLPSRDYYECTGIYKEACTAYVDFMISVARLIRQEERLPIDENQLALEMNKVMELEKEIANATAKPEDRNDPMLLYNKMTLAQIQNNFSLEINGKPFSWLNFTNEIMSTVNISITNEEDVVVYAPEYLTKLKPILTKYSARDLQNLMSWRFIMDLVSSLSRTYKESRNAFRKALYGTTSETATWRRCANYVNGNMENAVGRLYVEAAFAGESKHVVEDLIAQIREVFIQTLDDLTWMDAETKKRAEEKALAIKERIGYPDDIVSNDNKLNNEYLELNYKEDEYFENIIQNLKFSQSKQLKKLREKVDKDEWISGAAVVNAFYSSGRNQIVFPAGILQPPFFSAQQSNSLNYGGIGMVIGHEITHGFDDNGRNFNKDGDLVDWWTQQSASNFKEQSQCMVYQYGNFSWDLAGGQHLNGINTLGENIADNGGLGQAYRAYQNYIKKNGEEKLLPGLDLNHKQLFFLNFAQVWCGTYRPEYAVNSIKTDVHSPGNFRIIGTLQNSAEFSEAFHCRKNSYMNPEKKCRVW
The target in series [1] is Recombinant Human Neprilysin (Homo sapiens, UniProt P08473). As to the kind of experiment: Neprilysin qualitative cleavage assay (MALDI-TOF). The following applies: rhNEP 2 ng/μL, 37° C., first degradation products by MALDI-TOF. How it is done:
Native apelin-17 (2) and apelin peptides 5, 54, 56, 57, 58 and 59 were dissolved in Milli-Q water (1 mM). Recombinant Human Neprilysin (rhNEP, Sino Biological) was reconstituted in Tris buffer (100 mM Tris, 100 mM NaCl, 10 mM ZnCl2, pH 7.5). To initiate the assays, rhNEP was diluted in Tris buffer to a 2 ng/μL final concentration, and pre-incubated at 37° C. for 10 minutes prior to the addition of 5 μL of apelin peptide (1 mM). Aliquots (1 μL) were taken at 1, 2, 4, 6, 12, 24, 36, and 48 hours and analyzed with MALDI-TOF mass spectrometry to qualitatively determine the time point at which degradation products could be observed.

Series [2] in a line: In vitro peptide stability in human blood plasma (RP-HPLC).
The target in the next series is neprilysin (NEP) (Homo sapiens, UniProt P08473). The series is described as follows: in vitro. Particulars: human, pH 7.5.
neprilysin (NEP), sequence (P08473 whole entry): as above
A further series deals with C57BL/6 mice. The series is described as follows: Cardiac allograft vasculopathy, heterotopic heart transplant. The following applies: male hearts into female B6 mice, 3 mg/kg/d intraperitoneal for 4 weeks from 2 weeks after transplant. Format: in vivo. As to the method:
B6 male hearts were transplanted heterotopically into […] female B6 of the recipient mice, starting 2 weeks after transplant. Synthesized apelin peptide (Apelin-NMe17A2) (11), was given by daily intraperitoneal injection (3 mg/kg/d) for 4 weeks. Female mice raise immune response against the male HY antigen, injure the coronary arteries of the transplanted heart based on Verhoeff-Van Gieson staining (FIG. 17) leading to progressive expansion of the arterial intima occluding the arterial lumen (FIG. 18).
C57BL/6J mice were purchased from Jackson Laboratories. The C57BL/6 mice subjected to surgery were 11-14 weeks old. All animal experiments were carried out according to the Canadian Council on Animal Care Guidelines. Animal protocols were approved by the Animal Care and Use Committee at the University of Alberta. Hearts from 12-14 weeks male wild-type (WT) donors were transplanted heterotopically to the abdomen of the female WT recipients. […] Cardiac allograft vasculopathy (CAV) was induced due to the presence of HY-minor histocompatibility antigen-directed, cell-mediated allo-immune response against the male donor hearts. The heart grafts were harvested six weeks after transplantation. Intima area, endothelial loss in medium to large-sized arteries, inflammatory cellular infiltration, microvasculature density and tip cell markers using Immunohistochemistry and qPCR were characterized.

Recombinant Human Neprilysin, sequence (P08473 whole entry): as above

Broadly, the share remaining is the share of the starting amount still present when the sample was taken. Low values mean more turnover, high ones less turnover. For the molecule `CSCC[C@H](NC(=O)[C@@H]1CCCN1C(=O)CNC(=O)[C@H](CCCCN)NC(=O)[C@H](Cc1cnc[nH]1)NC(=O)[C@H](CO)NC(=O)[C@H](CC(C)C)NC(=O)[C@H](CCCNC(=N)N)NC(=O)[C@@H]1CCCN1C(=O)[C@H](CCCNC(=N)N)NC(=O)[C@H](CCC(N)=O)NC(=O)[C@H](CCCNC(=N)N)NC(=O)[C@H](CCCNC(=N)N)NC(=O)[C@H](Cc1ccccc1)NC(=O)[C@@H](N)CCCCN)C(=O)N1CCC[C@H]1C(=O)N[C@@H](Cc1ccccc1)C(=O)O` [Peptide 2, reference compound], the “t1/2 (rhNEP, h)” value at NEP (rhNEP 3.1 nM) turned out to be 0.4 h. For the same molecule, the “in vitro NEP proteolytic stability (in words)” value on NEP (rhNEP, up to 72 h, LC-MS) is listed as “degraded by NEP at rates comparable to those previously reported”. In addition, in series [1], the “Degradation Onset Timepoint with NEP” value is given as less than 30 min. In series [2] (human blood plasma), this molecule had a fraction remaining at 0.5 h, 80 µM of 51 ± 17% and an amount remaining at 1 h, 80 µM of 39 ± 7%. In series [2] (plasma), the “t1/2 (hplasma, h)” value is 0.02 h.

As usually defined, the half-life is the time needed for the level to fall by half in the phase considered. A high value points to slow loss. Molecule `CCCC[C@H](NC(=O)[C@@H]1CCCN1C(=O)CNC(=O)[C@H](CCCCN)NC(=O)[C@H](Cc1c[nH]cn1)NC(=O)[C@H](CO)NC(=O)[C@H](CC(C)C)N(C)C(=O)[C@H](CCCNC(=N)N)NC(=O)[C@@H]1CCCN1C(=O)[C@H](CCCNC(=N)N)NC(=O)[C@H](CCC(N)=O)NC(=O)[C@H](CCCNC(=N)N)NC(=O)[C@H](CCCNC(=N)N)NC(=O)[C@H](Cc1ccccc1)NC(=O)[C@@H](N)CCCCN)C(=O)NC(C)(C)C(=O)N[C@@H](Cc1ccc(Br)cc1)C(=O)O` [Peptide 11] (H-KFRRQRPR[NMeL]SHKGP[Nle][Aib][Phe(4-Br)]-OH; C-terminus assumed) displayed a half-life at neprilysin (NEP) greater than 1800 min. Besides, the “transplant arteriopathy (intima/lumen of coronary arteries)” value in the series with C57BL/6 mice was “mitigates arteriopathy”.
